Reference: ChEMBL document CHEMBL1201862, “PubChem BioAssay data set” (2004)
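All cell lines were grown in 96-well plates and treated with compound for 48 hours. GI50 marks 50% less growth.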 Calls of active or inactive are those of the source. Cut-off read from the data, not from the text of the source: active = GI50 up to about 1.1 µM and inactive = higher.

Key:
Experiment in all cases: NCI tumour cell line growth inhibition, 48 h
HCC 2998 = tested on: HCC 2998
HCT-116 = tested on: HCT-116
HL-60 = tested on: HL-60
HOP-62 = tested on: HOP-62
HT-29 = tested on: HT-29
IGROV-1 = tested on: IGROV-1
KM12 = tested on: KM12
LOX IMVI = tested on: LOX IMVI
MDA-MB-231 = tested on: MDA-MB-231
NCI-H460 = tested on: NCI-H460
OVCAR-4 = tested on: OVCAR-4
RXF 393 = tested on: RXF 393
SF-268 = tested on: SF-268
SF-295 = tested on: SF-295
SK-OV-3 = tested on: SK-OV-3
SN12C = tested on: SN12C
SNB-19 = tested on: SNB-19
SR = tested on: SR
UACC-257 = tested on: UACC-257
UACC-62 = tested on: UACC-62

SMILES | GI50 (HCC 2998) | GI50 (HCT-116) | GI50 (HL-60) | GI50 (HOP-62) | GI50 (HT-29) | GI50 (IGROV-1) | GI50 (KM12) | GI50 (LOX IMVI) | GI50 (MDA-MB-231) | GI50 (NCI-H460) | GI50 (OVCAR-4) | GI50 (RXF 393) | GI50 (SF-268) | GI50 (SF-295) | GI50 (SK-OV-3) | GI50 (SN12C) | GI50 (SNB-19) | GI50 (SR) | GI50 (UACC-257) | GI50 (UACC-62)
CCOC(=O)C(NC(=O)CC)(Nc1ccc(S(=O)(=O)Nc2onc(C)c2C)cc1)C(F)(F)F (configuration not stated) | > 100 µM (inactive) | > 100 µM (inactive) | > 100 µM (inactive) | > 100 µM (inactive) | > 100 µM (inactive) | > 100 µM (inactive) | > 100 µM (inactive) | > 100 µM (inactive) | > 100 µM (inactive) | > 100 µM (inactive) | > 100 µM (inactive) | > 100 µM (inactive) | > 100 µM (inactive) | > 100 µM (inactive) | > 100 µM (inactive) | > 100 µM (inactive) | > 100 µM (inactive) | > 100 µM (inactive) | > 100 µM (inactive) | > 100 µM (inactive)
CCOc1cnc(C(O)(c2ccccc2)c2ccccc2)o1 | > 100 µM (inactive) | > 100 µM (inactive) | > 100 µM (inactive) | > 100 µM (inactive) | > 100 µM (inactive) | > 100 µM (inactive) | > 100 µM (inactive) | 69.7 µM (inactive) | > 100 µM (inactive) | > 100 µM (inactive) | > 100 µM (inactive) | > 100 µM (inactive) | > 100 µM (inactive) | > 100 µM (inactive) | > 100 µM (inactive) | > 100 µM (inactive) | > 100 µM (inactive) | > 100 µM (inactive) | > 100 µM (inactive) | > 100 µM (inactive)
COc1ccc2nc(C)cc(NCCCCCCCCCNc3cc(C)nc4ccc(OC)cc34)c2c1 | 1.4 µM (inactive) | 0.279 µM (active) | 0.824 µM (active) | 2.26 µM (inactive) | 0.55 µM (active) | 2.99 µM (inactive) | 1.26 µM (inactive) | 0.714 µM (active) | 1.27 µM (inactive) | 0.396 µM (active) | 2.19 µM (inactive) | 2.05 µM (inactive) | 1.93 µM (inactive) | 1.11 µM (active) | 8.79 µM (inactive) | 3.6 µM (inactive) | 2.67 µM (inactive) | 0.486 µM (active) | 13.7 µM (inactive) | 2.83 µM (inactive)
CC(C)CCC/C(CBr)=C(\Cl)CCl | 8.59 µM (inactive) | 2.69 µM (inactive) | 0.103 µM (active) | 8.02 µM (inactive) | 2.37 µM (inactive) | 1.6 µM (inactive) | 2.15 µM (inactive) | 0.0728 µM (active) | 2.81 µM (inactive) | 5.05 µM (inactive) | 1.48 µM (inactive) | 1.57 µM (inactive) | 3.55 µM (inactive) | 13.3 µM (inactive) | 7.82 µM (inactive) | 2.82 µM (inactive) | 14.5 µM (inactive) | 0.746 µM (active) | 2.13 µM (inactive) | 
O=C1CNc2cc(N3CCOCC3)ccc2N1 | > 100 µM (inactive) | > 100 µM (inactive) | > 100 µM (inactive) | > 100 µM (inactive) | > 100 µM (inactive) | > 100 µM (inactive) | > 100 µM (inactive) | > 100 µM (inactive) | > 100 µM (inactive) | > 100 µM (inactive) | > 100 µM (inactive) | > 100 µM (inactive) | > 100 µM (inactive) | > 100 µM (inactive) | > 100 µM (inactive) |  | > 100 µM (inactive) | > 100 µM (inactive) | > 100 µM (inactive) | 64.9 µM (inactive)
O=C(c1ccc(Cl)cc1Cl)N(Cc1cccnc1)C(=S)N(Cc1cccnc1)C(=O)c1ccc(Cl)cc1Cl | 3.4 µM (inactive) | 2.48 µM (inactive) | 3.55 µM (inactive) | 2.37 µM (inactive) | 2.38 µM (inactive) |  | 2.96 µM (inactive) | 3.64 µM (inactive) | 2.75 µM (inactive) | 15.5 µM (inactive) | 2.72 µM (inactive) | 6.43 µM (inactive) | 4.68 µM (inactive) | 22.2 µM (inactive) | 19.3 µM (inactive) | 4.68 µM (inactive) | 12 µM (inactive) | 3.4 µM (inactive) | 6.32 µM (inactive) | 10.3 µM (inactive)
O=C(CCc1cccc(O)c1)NCCc1cccc(OCc2ccccc2)c1 | 17.3 µM (inactive) | 16.7 µM (inactive) | 28.4 µM (inactive) | 15.3 µM (inactive) | 16.6 µM (inactive) | 8.93 µM (inactive) | 6.81 µM (inactive) | 15.6 µM (inactive) | 18.5 µM (inactive) | 15.6 µM (inactive) | 20.1 µM (inactive) | 19.7 µM (inactive) | 15.3 µM (inactive) | 16.7 µM (inactive) | 23.6 µM (inactive) | 18.8 µM (inactive) | 22.8 µM (inactive) | 25 µM (inactive) | 16.3 µM (inactive) | 14.3 µM (inactive)
CCCN(CCC)C(=S)N/N=C/c1ccccn1 | 0.398 µM (active) | < 0.01 µM (active) | < 0.01 µM (active) | < 0.01 µM (active) | < 0.01 µM (active) | < 0.01 µM (active) | < 0.0139 µM (active) | < 0.01 µM (active) | < 0.01 µM (active) | 0.0103 µM (active) | < 0.01 µM (active) | 0.0566 µM (active) | < 0.0135 µM (active) | 0.0468 µM (active) | < 0.012 µM (active) | < 0.0195 µM (active) | 0.282 µM (active) | < 0.01 µM (active) | < 0.01 µM (active) | 
CC(C)=CCNc1ncnc2c1ncn2CCC#N | > 100 µM (inactive) | > 100 µM (inactive) | > 100 µM (inactive) | > 100 µM (inactive) | > 100 µM (inactive) | > 100 µM (inactive) | > 100 µM (inactive) | > 100 µM (inactive) | > 100 µM (inactive) | > 100 µM (inactive) | 45.1 µM (inactive) | 2.21 µM (inactive) | > 100 µM (inactive) | > 100 µM (inactive) | > 100 µM (inactive) | > 100 µM (inactive) | > 100 µM (inactive) | > 100 µM (inactive) |  | > 100 µM (inactive)
[N-]=[N+]=NC1(N=[N+]=[N-])C(=O)NN=C(c2ccccc2)C1=O (configuration not stated) | > 100 µM (inactive) | 16.8 µM (inactive) | 35.3 µM (inactive) | > 100 µM (inactive) | > 100 µM (inactive) | > 100 µM (inactive) | > 100 µM (inactive) | 37.7 µM (inactive) | > 100 µM (inactive) | > 100 µM (inactive) | 57.4 µM (inactive) | 45.5 µM (inactive) | 13 µM (inactive) | 61.4 µM (inactive) | > 100 µM (inactive) | > 100 µM (inactive) |  | 32.7 µM (inactive) | 97.5 µM (inactive) | 57.7 µM (inactive)
COc1cc(/C=C2\C(=O)N(c3cc(Cl)ccc3Cl)C(c3ccccc3)S2(=O)=O)cc(OC)c1OC (configuration not stated) | > 100 µM (inactive) | 38.5 µM (inactive) | 19.2 µM (inactive) | > 100 µM (inactive) | 81.5 µM (inactive) | 28.3 µM (inactive) | 36.6 µM (inactive) | 55.6 µM (inactive) | > 100 µM (inactive) | > 100 µM (inactive) | 62.1 µM (inactive) | > 100 µM (inactive) |  | 51.5 µM (inactive) | > 100 µM (inactive) | 62.1 µM (inactive) | > 100 µM (inactive) | 31.6 µM (inactive) | > 100 µM (inactive) | 37.2 µM (inactive)
O=C(O[C@H]1[C@@H](O)[C@H](n2cnc3c(Cl)ncnc32)O[C@@H]1COC(c1ccccc1)(c1ccccc1)c1ccccc1)c1ccccc1 | 16.1 µM (inactive) | 40.9 µM (inactive) | 9.91 µM (inactive) | 16.7 µM (inactive) | 18.5 µM (inactive) | 15.9 µM (inactive) | 16.1 µM (inactive) | 4.91 µM (inactive) | 21.2 µM (inactive) | 17.5 µM (inactive) | 30.3 µM (inactive) | 16.6 µM (inactive) | 15.4 µM (inactive) | 19.8 µM (inactive) | 71 µM (inactive) | 11.9 µM (inactive) | 39.3 µM (inactive) | 2.67 µM (inactive) | 14.7 µM (inactive) | 39.5 µM (inactive)
O=C1NCC2(CCNCC2)N1c1ccccc1 | > 100 µM (inactive) | > 100 µM (inactive) | > 100 µM (inactive) | > 100 µM (inactive) | > 100 µM (inactive) | > 100 µM (inactive) | > 100 µM (inactive) | > 100 µM (inactive) | > 100 µM (inactive) | > 100 µM (inactive) | > 100 µM (inactive) | > 100 µM (inactive) | > 100 µM (inactive) | > 100 µM (inactive) |  | > 100 µM (inactive) | > 100 µM (inactive) | > 100 µM (inactive) | > 100 µM (inactive) | > 100 µM (inactive)
O=C(O)c1c(CC(Cc2ccccc2)C(=O)O)ccc2c1CCC2 (configuration not stated) | > 100 µM (inactive) | > 100 µM (inactive) | > 100 µM (inactive) | > 100 µM (inactive) | > 100 µM (inactive) | > 100 µM (inactive) | > 100 µM (inactive) | > 100 µM (inactive) | > 100 µM (inactive) | > 100 µM (inactive) | > 100 µM (inactive) | > 100 µM (inactive) | > 100 µM (inactive) | > 100 µM (inactive) | > 100 µM (inactive) | > 100 µM (inactive) | > 100 µM (inactive) | > 100 µM (inactive) | > 100 µM (inactive) | 4.11 µM (inactive)
